# Read-outs that look alike come from different tables or passages of the source.
# Assays:
# HIV-1 [1] = format: cell-based
# HIV-1 [2] = format: cell-based; remark: listed apart in the source
# [3] = test system: genes "GAG", "LTR" and "ENV" of the HIV-1 provirus; assay: Integration of viral genome into chromosomic DNA of Supt-1 cells (PCR); format: cell-based; settings: HIV-1 treated with 1/100 dilution
# Protocol: By means of a genetic amplification through a thermostable polymerase, the presence of genes "GAG", "LTR" and "ENV" of the HIV-1 provirus is evidenced. This method is called P.C.R. Polymerase chain Reaction) (Chin-Yih Ou et al., Sciences 239, 295-297, 1988).
# Said method is applied for detecting HIV-1 provirus in the genome of Supt-1 cells inoculated with HIV-1 virus incubated with […] (dilution 1/100), as described in Example 8
# Amplified oligonucleotides, UV visible by means of ethidium bromide appear only in the tubes corresponding to an inoculation with HIV-1 viruses which were not treated with the active substance.
# One proceeds as in Example 11(c). The search of genes "GAG", "LTR" and "ENV" has been made in cellular cultures inoculated with a virus incubated for 15 minutes with the active substance. This search is appeared as being negative, and thus it can be concluded that 1.1'-azobisformamide at the dosage of 35 μgr/ml protects the cells against infection by HIV-1.
# Examples 10c and 11c disclose a more accurate method than the ELISA test for examining whether the inoculated cells contain HIV-1 at the end of the assay, i.e., the PCR-Method.
# [4] = test system: lymphocyte cellular lines; assay: Toxicity for human lymphocyte cellular lines; format: cell-based; settings: even after 24 hours
# [5] = test system: Molt-3 cells infected by HTLVIII-B
# [6] = test system: human blood cell glutathione; settings: N. S. KOSOWER et al. (1969); cited from earlier work
# in vitro [7] = settings: human, supt-1 cells
# in vitro [8] = settings: human, molt-3 cells, % of dead cells
# [9] = test system: HIV strain of the patient; assay: Resistance of the patient's HIV strain (course of treatment; gene sequencing of viral RNA); settings: for genetic resistance of the patient's strain: mutations in codons 67, 70, 184, 215 and 219; for resistance, concomitant medication: patient of Example 27, DDI, then DDI and DDC
# wild HIV-1 strains = assay: Phenotypic resistance of wild HIV-1 strains; format: cell-based; settings: strains marked * (Wild A, B, C, F, G)
compound,measurement,setting,value
CN(C)C(=O)N=NC(=O)N(C)C [1.1'-azobisdimethylformamide],effectiveness up to the 25th day,HIV-1 [1],effectiveness of this active substance is maintained
same,infection of sound Supt-1 cells by treated HIV,HIV-1 [1],is not able to infect the sound Supt-1 cells
same,protection of Supt-1 cells,HIV-1 [1],has this effect
same,cytopathogenic effect,HIV-1 [2],no cytopathogenic effect was observed
same,HIV-1 provirus within Supt-1 cells,[3],totally absent
same,toxicity for human lymphocyte cellular lines,[4],no toxicity
same,cellular viability of Supt-1 cells,Supt-1 cells,does not decrease the cellular viability
same,toxicity against sound Supt-1 cells,Supt-1 cells,no toxicity against sound Supt-1 cells
same,toxicity for human Supt-1 cells,Supt-1 cells,no toxicity
same,mortality of the infected cells,"[5]; after 30 minutes, even at dilution 1/3000",mortality of the infected cells is doubled
same,Number of dead cells,"[5]; dilution 1/500, 1 min",9
same,Number of living cells,"[5]; dilution 1/500, 1 min",62
same,Number of dead cells,"[5]; dilution 1/500, 10 min",11
same,Number of living cells,"[5]; dilution 1/500, 10 min",67
same,Number of dead cells,"[5]; dilution 1/500, 30 min",12
same,Number of living cells,"[5]; dilution 1/500, 30 min",58
same,Number of dead cells,"[5]; dilution 1/1500, 30 min",15
same,Number of living cells,"[5]; dilution 1/1500, 30 min",70
same,Number of dead cells,"[5]; dilution 1/3000, 30 min",12
same,Number of living cells,"[5]; dilution 1/3000, 30 min",58
same,% of dead cells,"[5]; human, molt-3 cells, 0.5 h",17.6%
same,intracellular oxidising action on human blood cell glutathione,[6],intracellular oxidising action on human blood cell glutathione
same,cytotoxicity at 0 h,in vitro [7],26%
same,cytotoxicity at 1 h,in vitro [7],24%
same,cytotoxicity at 5 h,in vitro [7],28%
same,cytotoxicity at 1 min,in vitro [8],12.7%
same,cytotoxicity at 10 min,in vitro [8],14%
same,cytotoxicity at 0.5 h,in vitro [8],17.1%
Nc1ccn([C@@H]2CS[C@H](CO)O2)c(=O)n1 [3TC],genetic resistance of the patient's strain,[9],genetically resistant
"Cc1cn([C@H]2C[C@H](N=[N+]=[N-])[C@@H](CO)O2)c(=O)[nH]c1=O [AZT, 3'-azido-3'-desoxythymidine]",phenotypic resistance to AZT,wild HIV-1 strains,Phenotypically resistant
same,genetic resistance of the patient's strain,[9],genetically resistant
Nc1ccn([C@H]2CC[C@@H](CO)O2)c(=O)n1 [DDC],genetic resistance of the patient's strain,[9],genetically resistant
same,"resistance, concomitant medication",[9],stopped because of resistance
O=c1[nH]cnc2c1ncn2[C@H]1CC[C@@H](CO)O1 [DDI],genetic resistance of the patient's strain,[9],genetically resistant
same,"resistance, concomitant medication",[9],stopped because of resistance
